Measured values as given in ChEMBL document CHEMBL1156829 (Proc Natl Acad Sci U S A, 2008).

Legend:
Plasmodium falciparum [1] = assay: NOVARTIS: Inhibition of Plasmodium falciparum 3D7 (drug-susceptible) proliferation in erythrocyte-based infection assay; type: functional, organism-based; details: Plasmodium falciparum, 3D7
Plasmodium falciparum [2] = assay: NOVARTIS: Inhibition of Plasmodium falciparum W2 (drug-resistant) proliferation in erythrocyte-based infection assay; type: functional, organism-based; details: Plasmodium falciparum, W2; read-out: EC50
[3] = NOVARTIS: Cytotoxicity against human hepatocellular carcinoma cell line (Huh7); type: toxicity, cell-based, Huh-7; details: Huh7 cells (hepatocellular carcinoma cell line)

Row | SMILES | EC50 (Plasmodium falciparum [1]) | EC50 (Plasmodium falciparum [2]) | CC50 [3]
1 | CN(Cc1ccccc1)C(=O)CSc1nc(NCc2ccccc2)c2ccccc2n1 | > 3.03 µM | > 12.5 µM | > 100 µM
2 | CCN1/C(=C/C(=C/c2sc3ccccc3[n+]2CC)NC)Sc2ccccc21 | > 1.25 µM | > 0.422 µM | > 10 µM
3 | Cc1oc2c(c1C(=O)N1CCC(C)CC1)C(=O)c1ccccc1C2=O | 0.222 µM | 0.0792 µM | 48.3 µM
4 | CO[C@H]1[C@H](C)[C@@H]([C@H]2CC[C@H]([C@@H]3CC[C@H]([C@@]4(C)O[C@]5(O[C@H](C[C@@H]6O[C@](O)([C@@H](C)C(=O)O)[C@@H](C)[C@H](O[C@H]7CC[C@H](OC)[C@@H](C)O7)[C@@]6(C)OC)C[C@@H](OC)[C@H]5C)[C@H](C)[C@H]4OC)O3)O2)O[C@](C)(O)[C@@H]1C | 0.0133 µM | 0.00193 µM | 2.42 µM
5 | CC1N=C2c3ccccc3N=C(SCc3ccc(F)cc3)N2C1=O (centres undefined) | > 12.5 µM | > 6.53 µM | > 100 µM
6 | CCC(c1nc2ccccc2c(=O)n1CCOC)N1CCNCC1 (centres undefined) | 0.369 µM | > 0.469 µM | > 10 µM
7 | Cc1nc2ccccn2c1C1(O)C(=O)Nc2c(Cl)cc(Cl)cc21 (centres undefined) | 0.449 µM | 0.178 µM | > 10 µM
8 | CC(=O)N(C1=C(N2CCOCC2)C(=O)c2ccccc2C1=O)c1cc(C)cc(C)c1 | 0.0401 µM | 0.0633 µM | 6.94 µM
9 | c1ccc(CSc2nc3ccncc3[nH]2)cc1 | > 1.25 µM | > 1.15 µM | > 10 µM
10 | COc1ccc2nc(C)cc(Nc3ccc(Cl)cc3)c2c1 | 1.23 µM | 2.69 µM | 18.3 µM
11 | Cc1cc(C)c2c(c1)-c1c(ssc1=S)C(C)(C)N2C(=O)COc1nc2ccccc2s1 | 0.125 µM | 0.169 µM | > 100 µM
12 | Cc1ccc(-c2nc(CS(=O)(=O)CC(=O)NC3CCC(C)CC3)c(C)o2)cc1 (centres undefined) | > 1.25 µM | > 0.244 µM | > 10 µM
13 | COc1ccccc1Nc1nc(NCC2CCCO2)c2ccccc2n1 (centres undefined) | 1.04 µM | 1.57 µM | 29.4 µM
14 | O=C(Cn1c2ccccc2c(=O)c2cc([N+](=O)[O-])ccc21)Nc1ccc(F)c(Cl)c1 | > 12.5 µM | 5.67 µM | > 100 µM
15 | CCCCN1C=CC=C/C1=C\c1sc2ccccc2[n+]1CC | 0.12 µM | 0.226 µM | 1.8 µM
16 | COc1cc2nc(NCC3CCCO3)n3nc(-c4ccccc4)nc3c2cc1OC (centres undefined) | 0.293 µM | 0.662 µM | > 100 µM
17 | Cc1ccc(C(=O)Nc2ccc(-c3nc4cc5ccccc5cc4[nH]3)cc2)cc1[N+](=O)[O-] | 4.3 µM | 3.98 µM | > 100 µM

Row | SMILES | EC50 (Plasmodium falciparum [1]) | EC50 (Plasmodium falciparum [2]) | CC50 [3]
18 | NC(=O)c1ccc(-n2nnnc2SCc2ccc(Cl)cc2)cc1 | 2.83 µM | > 12.5 µM | > 100 µM
19 | Cc1cccc(-n2c(CNC(=O)c3ccc(S(=O)(=O)N4CCCCC4)cc3)nnc2SCC(=O)Nc2nccs2)c1 | 4.2 µM | 2.17 µM | 67.1 µM
20 | Cc1ccc(Nc2nc(NN=Cc3ccc(-c4ccc([N+](=O)[O-])cc4)o3)nc(Nc3ccccc3)n2)c(C)c1 | > 0.824 µM | 0.387 µM | > 10 µM
21 | CCOC(=O)c1c(C)n(-c2ccccc2)c2ccc(OC(=O)c3ccco3)cc12 | 0.607 µM | 1.14 µM | > 100 µM
22 | CN1CCc2c(sc3nc(SCc4ccccc4)n(-c4ccccc4)c(=O)c23)C1 | 1.77 µM | 0.67 µM | > 100 µM
23 | C=C[C@H]1CN2CC[C@H]1C[C@@H]2[C@@H](O)c1ccnc2ccccc12 [CINCHONINE] | 0.0953 µM | 0.11 µM | > 6.25 µM
24 | COc1ccc(NC(=O)COc2ccccc2C(C)C)c(OC)c1 | 7.95 µM | > 12.5 µM | > 100 µM
25 | Cc1ccn2c(NC(C)(C)CC(C)(C)C)c(-c3ccccc3OC(=O)c3ccc(C)c([N+](=O)[O-])c3)nc2c1 | 0.744 µM | 0.0477 µM | > 10 µM
26 | O=C1NC(=S)NC1=Cc1cccc(Oc2ccccc2)c1 | > 6.89 µM | 1.95 µM | > 100 µM
27 | Cc1ccn2c(NC(C)(C)CC(C)(C)C)c(-c3ccccc3OC(=O)C3CCCCC3)nc2c1 | 0.654 µM | 0.0187 µM | > 10 µM
28 | CC(C)(C)NC(=O)C(c1cccs1)N(CCCN1CCOCC1)C(=O)c1ccc(-c2ccccc2)[nH]1 (centres undefined) | 1.23 µM | 1.11 µM | > 10 µM
29 | c1ccc2[nH]c(Sc3ncnc4sc5c(c34)CCC5)nc2c1 | 6.84 µM | 0.909 µM | > 100 µM
30 | CN(CCCNc1ccnc2cc(Cl)ccc12)C(=O)C(C)(C)C | 0.203 µM | 0.225 µM | > 10 µM
31 | COc1ccc(C2=C(c3ccc(OC)cc3)C3(c4ccccc4)C(=O)C2(c2ccccc2)C2C(=O)N(c4ccc(OC)cc4[N+](=O)[O-])C(=O)C23)cc1 (centres undefined) | 0.353 µM | 0.316 µM | > 100 µM
32 | O=[N+]([O-])c1cc(C(F)(F)F)ccc1N1CCCN(C(=S)Nc2cccc(C(F)(F)F)c2)CC1 | 0.149 µM | 0.13 µM | 55 µM
33 | CCc1ccc(CSc2nc3cc(OC)c(OC)cc3c(=N)n2CCc2ccccc2)cc1 | 6.64 µM | 7.62 µM | 38.9 µM
